The source of these data is patent publication US20110281896A1, “OPTICALLY PURE QUINAZOLINE COMPOUNDS” (Jiangsu Hansoh Pharmaceutical Co. Ltd, priority 2009, published 2011).

For test [1], the system named is A431. The test can be described thus: Antitumor activity in vitro, SRB cell proliferation inhibition. Type of test: cell-based. The settings on record: 72 h incubation, Logit method. As for the experimental part: (§1) Evaluation of Antitumor Activity In Vitro
(§2) Cell Strains: A431; MCF-7
(§3) Experiment Design: Cells were incubated with different concentrations of compounds for 72 hours. The inhibition of cell proliferation by the compounds was evaluated by SRB, followed by calculation of the inhibition rate. Then, value of IC50 was calculated by using-Logit method base on the inhibition rate and used to compare in vitro antitumor activity of the compounds.
(§4) Method for Calculating the Inhibition Rate: Inhibition rate (%)=(OD value of control group−OD value of drug group)/OD value of control group×100%

In test [2] the test system is MCF-7. The test is described as above. Particulars: 72 h incubation, Logit method. It counts as cell-based. As for the experimental part: as §1, §2, §3, §4
Where [3] appears, read: Homo sapiens, A-431, A431 cells.
Setting [4] is: Homo sapiens, MCF7, MCF-7 cells.

Each structure is given as a SMILES string.

Regarding `CS(=O)(=O)C[C@@H](N)c1ccc(-c2ccc3ncnc(Nc4ccc(OCc5cccc(F)c5)c(Cl)c4)c3c2)o1` [Compound 92, (S)—N-(4-(3-fluorobenzyl-oxy)-3-chlorophenyl)-6-(5-(1-(amino)-2-(methylsulfonyl)ethyl)furan-2-yl)quinazolin-4-amine], the IC50 in test [1] (setting [3]) came to 422 nM; in test [2] (setting [4]), 9.34 µM.
In the case of `CN[C@H](CS(C)(=O)=O)c1ccc(-c2ccc3ncnc(Nc4ccc(OCc5cccc(F)c5)c(Cl)c4)c3c2)o1` [Compound 93, (S)—N-(4-(3-fluorobenzyl-oxy)-3-chlorphenyl)-6-(5-(1-(methylamino)-2-(methylsulfonyl)ethyl)furan-2-yl)quinazolin-4-amine], the results for the IC50 in test [1] (A431 cells) and in test [2] (MCF-7 cells) were 460 nM and 8.86 µM, respectively.
As to `CCN[C@H](CS(C)(=O)=O)c1ccc(-c2ccc3ncnc(Nc4ccc(OCc5cccc(F)c5)c(Cl)c4)c3c2)o1` [Compound 94, (S)—N-(4-(3-fluorobenzyl-oxy)-3-chlorophenyl)-6-(5-(1-(ethylamino)-2-(methylsulfonyl)ethyl)furan-2-yl)quinazolin-4-amine], the results for the IC50 in test [1] (setting [3]) and in test [2] (setting [4]) were 652 nM and 7.85 µM, respectively.
Regarding `CCCN[C@H](CS(C)(=O)=O)c1ccc(-c2ccc3ncnc(Nc4ccc(OCc5cccc(F)c5)c(Cl)c4)c3c2)o1` [Compound 95, (S)—N-(4-(3-fluorobenzyl-oxy)-3-chlorophenyl)-6-(5-(1-(propyl-amino)-2-(methylsulfonyl)ethyl)furan-2-yl)quinazolin-4-amine], the half-maximal inhibitory concentration (IC50) in test [1] (setting [3]) was determined as 453 nM; in test [2] (setting [4]), 7.9 µM.
Consider `CN(C1CC1)[C@H](CS(C)(=O)=O)c1ccc(-c2ccc3ncnc(Nc4ccc(OCc5cccc(F)c5)c(Cl)c4)c3c2)o1` [Compound 96, (S)—N-(4-(3-fluorobenzyl-oxy)-3-chlorophenyl)-6-(5-(1-(cyclopropyl-methyl-amino)-2-(methylsulfonyl)ethyl)furan-2-yl)quinazolin-4-amine], for which the IC50 in test [1] (setting [3]) came to 578 nM; in test [2] (setting [4]), 6.7 µM.
For `CCN(CC)[C@H](CS(C)(=O)=O)c1ccc(-c2ccc3ncnc(Nc4ccc(OCc5cccc(F)c5)c(Cl)c4)c3c2)o1` [Compound 98, (S)—N-(4-(3-fluorobenzyl-oxy)-3-chlorophenyl)-6-(5-(1-(N,N-diethyl-amino)-2-(methyl-sulfonyl)ethyl)furan-2-yl)quinazolin-4-amine], the IC50 in test [1] (setting [3]) was 677 nM; in test [2] (setting [4]), 7.66 µM.
The corresponding values for `CCCN(CCC)[C@H](CS(C)(=O)=O)c1ccc(-c2ccc3ncnc(Nc4ccc(OCc5cccc(F)c5)c(Cl)c4)c3c2)o1` [Compound 99, (S)—N-(4-(3-fluorobenzyl-oxy)-3-chlorophenyl)-6-(5-(1-(N,N-dipropyl-amino)-2-(methylsulfonyl)ethyl)furan-2-yl)quinazolin-4-amine] are 759 nM and 5.92 µM.
For `CCN(C)[C@H](CS(C)(=O)=O)c1ccc(-c2ccc3ncnc(Nc4ccc(OCc5cccc(F)c5)c(Cl)c4)c3c2)o1` [Compound 100, (S)—N-(4-(3-fluorobenzyl-oxy)-3-chlorophenyl)-6-(5-(1-(N-methyl, N-ethyl-amino)-2-(methylsulfonyl)ethyl)furan-2-yl)quinazolin-4-amine], the 50% inhibitory concentration (IC50) in test [1] (setting [3]) stood at 489 nM; in test [2] (setting [4]) it was 9.9 µM.
The corresponding values for `C=CCN[C@H](CS(C)(=O)=O)c1ccc(-c2ccc3ncnc(Nc4ccc(OCc5cccc(F)c5)c(Cl)c4)c3c2)o1` [Compound 101, (S)—N-(4-(3-fluorobenzyl-oxy)-3-chlorophenyl)-6-(5-(1-(allyl-amino)-2-(methylsulfonyl)ethyl)furan-2-yl)quinazolin-4-amine] are 588 nM and 10.4 µM.
The matching figures for `C#CCN[C@H](CS(C)(=O)=O)c1ccc(-c2ccc3ncnc(Nc4ccc(OCc5cccc(F)c5)c(Cl)c4)c3c2)o1` [Compound 102, (S)—N-(4-(3-fluorobenzyl-oxy)-3-chlorophenyl)-6-(5-(1-(propargyl-amino)-2-(methylsulfonyl)ethyl)furan-2-yl)quinazolin-4-amine]: 457 nM and 8.9 µM.

As usually defined, the IC50 is the concentration needed to halve the response being measured. Low values mean higher potency, high ones lower potency.
